These results are taken from ChEMBL document CHEMBL1124985, “A Free-Wilson/Fujita-Ban analysis and prediction of the analgesic potency of some 3-hydroxy- and 3-methoxy-N-alkylmorphinan-6-one opioids” (J Med Chem, 1990).

The target of the assay is Opioid receptor (Mus musculus) (UniProt P42866+P32300+P33534).
Sequence of Opioid receptor (Mus musculus) (P32300 whole entry, looked up): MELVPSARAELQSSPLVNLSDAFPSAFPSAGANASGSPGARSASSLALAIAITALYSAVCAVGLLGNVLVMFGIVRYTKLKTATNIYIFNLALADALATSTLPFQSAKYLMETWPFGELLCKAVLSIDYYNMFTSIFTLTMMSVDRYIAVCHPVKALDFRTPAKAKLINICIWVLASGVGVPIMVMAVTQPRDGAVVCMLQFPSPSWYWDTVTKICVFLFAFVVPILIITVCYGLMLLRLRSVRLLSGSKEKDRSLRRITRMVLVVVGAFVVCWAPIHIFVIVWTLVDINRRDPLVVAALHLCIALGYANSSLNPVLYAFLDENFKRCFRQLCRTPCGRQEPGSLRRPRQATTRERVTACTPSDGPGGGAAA
Sequence of Opioid receptor (Mus musculus) (P33534 whole entry, looked up): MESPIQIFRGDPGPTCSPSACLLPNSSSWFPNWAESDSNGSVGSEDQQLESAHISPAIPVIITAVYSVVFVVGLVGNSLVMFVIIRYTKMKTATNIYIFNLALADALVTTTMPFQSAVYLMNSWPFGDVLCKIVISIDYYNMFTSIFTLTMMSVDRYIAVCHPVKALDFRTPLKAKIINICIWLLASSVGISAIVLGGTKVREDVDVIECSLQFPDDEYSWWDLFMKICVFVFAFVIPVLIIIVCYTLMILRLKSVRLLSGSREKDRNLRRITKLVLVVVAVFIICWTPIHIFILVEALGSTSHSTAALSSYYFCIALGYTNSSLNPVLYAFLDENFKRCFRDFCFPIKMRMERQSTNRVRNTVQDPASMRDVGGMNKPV
Sequence of Opioid receptor (Mus musculus) (P42866 whole entry, looked up): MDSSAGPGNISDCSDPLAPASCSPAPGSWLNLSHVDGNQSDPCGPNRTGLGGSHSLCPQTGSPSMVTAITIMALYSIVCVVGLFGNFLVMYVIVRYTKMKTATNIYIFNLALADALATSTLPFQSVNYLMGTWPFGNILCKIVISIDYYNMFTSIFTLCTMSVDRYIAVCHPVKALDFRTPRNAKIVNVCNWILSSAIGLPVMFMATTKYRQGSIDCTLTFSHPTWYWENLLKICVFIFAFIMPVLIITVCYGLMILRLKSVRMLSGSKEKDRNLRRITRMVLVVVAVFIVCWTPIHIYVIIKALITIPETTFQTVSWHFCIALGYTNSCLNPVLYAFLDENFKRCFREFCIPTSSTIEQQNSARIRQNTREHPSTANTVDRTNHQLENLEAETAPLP
Description: Analgesic Potency was tested against mice
As for `CC[C@H]1CCC[C@]23CCN(C)[C@H](Cc4ccc(OC)cc42)C13` (some centres undefined), the Log AP stood at 5.93. As for `C[C@H]1CCC[C@]23CCN(C)[C@H](Cc4ccc(O)cc42)[C@H]13`, the figure is 5.12; as for `C[C@H]1CCC[C@]23CCN(CC4CCC4)[C@H](Cc4ccc(O)cc42)C13` (stereo in doubt; 46), 6.41. The same measure for `COc1ccc2c(c1)[C@@]13CCC(C)[C@H](C)C1[C@@H](C2)N(CC1CC1)CC3` (some centres undefined): 6.15. With `COc1ccc2c3c1OC1CC[C@H](C)C4[C@@H](C2)N(CC2CCC2)CC[C@]314` (some centres undefined), the Log AP was 5.26. In the case of `Oc1ccc2c3c1O[C@H]1CCCC4[C@@H](C2)N(CC2CCC2)CC[C@@]341` (some centres undefined), the Log AP amounted to 6.49. Molecule `CC[C@H]1CCC[C@]23CCN(CC4CCC4)[C@H](Cc4ccc(OC)cc42)C13` (some centres undefined) showed a Log AP of 5.47. The same measure for `COc1ccc2c(c1)[C@]13CCN(C)[C@H](C2)[C@@H]1C=C(C)C(=O)C3`: 5.67. On to `CC[C@H]1C(C)CC[C@]23CCN(CC4CCC4)[C@H](Cc4ccc(OC)cc42)C13` (some centres undefined), for which the Log AP was determined as 5.04. With `COc1ccc2c(c1)[C@@]13CCC(C)[C@H](C)C1[C@@H](C2)N(C)CC3` (some centres undefined), the Log AP amounted to 5.95. Consider `CCC[C@H]1CCC[C@]23CCN(C)[C@H](Cc4ccc(OC)cc42)C13` (some centres undefined), for which the Log AP was 4.9. Consider `C[C@H]1CC(=O)C[C@]23CCN(C)[C@H](Cc4ccc(O)cc42)[C@@H]13`, for which the Log AP is 6.32. The molecule `CC1CC[C@]23CCN(C)[C@H](Cc4ccc(O)cc42)C3C1` (some centres undefined) returned a Log AP of 5.56. For `Oc1ccc2c3c1O[C@H]1CCCC4[C@@H](C2)N(CC2CC2)CC[C@@]341` (some centres undefined), the Log AP turned out to be 5.37. As for `COc1ccc2c(c1)[C@]13CCN(CC4CCC4)[C@H](C2)[C@H]1CC(C)C(=O)C3` (some centres undefined), the figure is 4.68.

With `COc1ccc2c3c1O[C@H]1CC(C)CC4[C@@H](C2)N(C)CC[C@@]341` (some centres undefined), the Log AP is 5.71. Regarding `CCC[C@H]1CC[C@@H]2Oc3c(OC)ccc4c3[C@@]23CCN(C)[C@H](C4)C13` (some centres undefined), the Log AP was 4.87. The same measure for `COc1ccc2c3c1O[C@H]1CCCC4[C@@H](C2)N(C)CC[C@@]341` (some centres undefined): 5.54. Regarding `Oc1ccc2c(c1)[C@@]13CCCC[C@H]1[C@@H](C2)N(CC1CCC1)CC3`, the Log AP turned out to be 6.45. `COc1ccc2c(c1)[C@]13CCN(C)[C@H](C2)[C@@H]1C=CC(=O)C3` displayed a Log AP of 6.45. As for `COc1ccc2c(c1)[C@@]13CCCCC1[C@@H](C2)N(CC1CCC1)CC3` (some centres undefined), the figure is 6.09; as for `CC1CC[C@]23CCN(CC4CCC4)[C@H](Cc4ccc(O)cc42)C3C1` (some centres undefined), 6.71. For the molecule `COc1ccc2c(c1)[C@@]13CCCC[C@H]1[C@@H](C2)N(C)CC3`, the Log AP amounted to 5.84. Regarding `C=C1C[C@H](C)[C@H]2[C@H]3Cc4ccc(O)cc4[C@@]2(CCN3CC2CCC2)C1`, the Log AP came to 6.07. The same measure for `C[C@H]1CCC2Oc3c(O)ccc4c3[C@@]23CCN(C)[C@H](C4)C13` (some centres undefined): 6.03. The molecule `O=C1CC[C@@H]2[C@H]3Cc4ccc(O)cc4[C@@]2(CCN3CC2CCC2)C1` displayed a Log AP of 5.92. With `COc1ccc2c(c1)[C@@]13CCC(C)CC1[C@@H](C2)N(CC1CCC1)CC3` (some centres undefined), the Log AP worked out at 5.16. The same measure for `CC[C@H]1C(C)CC[C@]23CCN(C)[C@H](Cc4ccc(OC)cc42)C13` (some centres undefined): 5.69. The same measure for `C[C@H]1CCC[C@]23CCN(CC4CC4)[C@H](Cc4ccc(O)cc42)C13` (some centres undefined): 4.81. Take `COc1ccc2c(c1)[C@@]13CCCCC1[C@@H](C2)N(CC1CC1)CC3` (some centres undefined): the Log AP is 6.87. Take `CC[C@H]1CCC[C@]23CCN(CC4CC4)[C@H](Cc4ccc(OC)cc42)C13` (some centres undefined): the Log AP was 5.91.

Turning to `COc1ccc2c(c1)[C@@]13CCC[C@H](C)C1[C@@H](C2)N(CC1CCC1)CC3` (some centres undefined), the Log AP was determined as 5.99. The same measure for `COc1ccc2c3c1OC1CC[C@H](C)C4[C@@H](C2)N(CC2CC2)CC[C@]314` (some centres undefined): 5.16; for `COc1ccc2c(c1)[C@@]13CCC(C)[C@H](C)C1[C@@H](C2)N(CC1CCC1)CC3` (some centres undefined): 5.25. Consider `CC1CC[C@]23CCN(CC4CCC4)[C@H](Cc4ccc(O)cc42)C3[C@H]1C` (stereo in doubt; 20), for which the Log AP is 6.95. The same measure for `CC1CC[C@]23CCN(CC4CC4)[C@H](Cc4ccc(O)cc42)C3C1` (some centres undefined): 5.24; for `COc1ccc2c3c1OC1CC[C@H](C)C4[C@@H](C2)N(C)CC[C@]314` (some centres undefined): 5.45. The same measure for `CC[C@H]1CCC2Oc3c(OC)ccc4c3[C@@]23CCN(C)[C@H](C4)C13` (some centres undefined): 5.72. The molecule `C[C@H]1CC[C@@H]2Oc3c(O)ccc4c3[C@@]23CCN(CC2CCC2)[C@H](C4)C13` (some centres undefined) had a Log AP of 6.41. As for `COc1ccc2c3c1O[C@H]1CCCC4[C@@H](C2)N(CC2CC2)CC[C@@]341` (some centres undefined), the figure is 6.2; as for `C[C@H]1CCC[C@]23CCN(CC4CCC4)[C@H](Cc4ccc(O)cc42)C13` (stereo in doubt; 41), 6.6; as for `CCC[C@H]1CCC[C@]23CCN(CC4CC4)[C@H](Cc4ccc(OC)cc42)C13` (some centres undefined), 4.76. As for `COc1ccc2c(c1)[C@@]13CCC[C@H](C)C1[C@@H](C2)N(C)CC3` (some centres undefined), the figure is 5.87; as for `COc1ccc2c(c1)[C@@]13CCC[C@H](C)C1[C@@H](C2)N(CC1CC1)CC3` (some centres undefined), 6.59; as for `CN1CC[C@]23c4c5ccc(O)c4O[C@H]2CCCC3[C@H]1C5` (some centres undefined), 5.95. Take `CC1CC[C@]23CCN(CC4CCC4)[C@H](Cc4ccc(O)cc42)C3[C@H]1C` (stereo in doubt; 40): the Log AP worked out at 6.23. `CC[C@H]1C(C)CC[C@]23CCN(CC4CCC4)[C@H](Cc4ccc(O)cc42)C13` (some centres undefined) had a Log AP of 5.82. In turn, `CC[C@H]1CC[C@@H]2Oc3c(OC)ccc4c3[C@@]23CCN(CC2CC2)[C@H](C4)C13` (some centres undefined) came in with a Log AP of 5.18. As for `C[C@H]1CC(=O)C[C@]23CCN(CC4CCC4)[C@H](Cc4ccc(O)cc42)[C@@H]13`, the figure is 5.75. Take `Oc1ccc2c(c1)[C@@]13CCCC[C@H]1[C@@H](C2)N(CC1CC1)CC3`: the Log AP is 5.16. As for `COc1ccc2c3c1O[C@H]1CCCC4[C@@H](C2)N(CC2CCC2)CC[C@@]341` (some centres undefined), the figure is 5.58. As for `CN1CC[C@]23CCCCC2C1Cc1ccc(O)cc13` (some centres undefined), the figure is 5.99; as for `C[C@H]1CCC[C@]23CCN(C)[C@H](Cc4ccc(O)cc42)C13` (some centres undefined), 5.32. For the molecule `COc1ccc2c(c1)[C@@]13CCC(C)CC1[C@@H](C2)N(CC1CC1)CC3` (some centres undefined), the Log AP was found to be 5.97.
